Like-named read-outs stand apart in the source and are kept apart here.
Tests used:
[1] = target: T1, SMBS on rat lung membranes (Rattus norvegicus, UniProt A0A8I6A822); experiment: Receptor binding of the compound in rat lung membranes ([125I]-iodo-cyanopindolol ligand binding assay; Experiments 1 and 4); details: rat lung membranes, read-out: Binding Activity (30 μM)
T1 construct: from tissue; host or cells: rat lung membranes (SD male rats)

[2] = system: leukocyte infiltration into the airway; experiment: Leukocyte infiltration into the airway in the guinea pig models (BALF cell counts); type: in vivo
Procedure: Evaluation of the Compound in the Leukocyte Infiltration into the Airway in the Guinea Pig Models:
In the same manner to in Experiment 2, the sensitization, the antigen challenge, and the administration of pyrilamine maleate and a medicament were carried out.
The recovery of bronchoalveolar lavage fluid (BALF) was carried out at 24 hours after the antigen challenge. Namely, the animals were anesthetized by intraperitoneal administration of pentbarbital (50 mg/ml) at a dose of 0.5 ml per animal, and the animals were subjected to an abdominal operation after sufficiently anesthetized. The perineal abdominal aorta was cut and the animals were killed by venesection. The diaphragm was incised and the neck was also incised to expose the trachea. After the trachea was cut, a cannula was inserted thereto, and an ice-cooled saline solution (5 ml) was injected by using a 5 ml syringe. Then, the injection and the suction were repeated three times by using the same solution for recovery. The fluid was collected and filtered through a stainless mesh, and collected in a tube on the ice. These procedures were repeated twice, and the recovery fluid was collected into the same tube (cases wherein the fluid volume was not more than 7 ml were not employed as data).
After the recovery, the fluid volume to be recovered was measured with the eye, and the fluid was centrifuged at 1500 rpm at 4° C. for 3 minutes, and the supernant was discarded. The residue was subjected to hemolysis under hypooncotic conditions. The mixture was centrifuged at 1500 rpm at 4° C. for 3 minutes, and the supernatant was discarded. The cells thus collected were suspended in a phosphoric buffered saline solution (PBS (−))(1 ml) containing a 0.5% BSA. The total number of cells were counted in this suspension by an automated leukocyte counter. After the measurement, a slide preparation was prepared by using Cytospin, which was further stained with a Diff Quick Stainning Kit.

Hartley male guinea pigs = experiment: Late asthmatic model in guinea pigs (ovalbumin sensitization and challenge, respiratory function sGaw); type: in vivo, guinea pig
Procedure: Experiment 2 Evaluation of the Compound in Late Asthmatic Model in Guinea Pigs
The evaluation test was carried out using the compound obtained in Example 1.
Hartley male guinea pigs (purchased from Japan SLC) were prefed for about 1 week after purchasing them, and exposed to a 2% (w/v) solution of ovalbumin (OA) in saline solution in a plastic box (4 animals/box) for 5 minutes and made them inhale it by using an ultrasonic nebulizer (OMRON NE-U12, conditions: maximum amount of atomization and maximum airflow) for sensitization (Day 0). The animals were subjected to the same procedures on the 7th day. On the 14th and 15th days, each one animal was made to inhale a 2% OA for 5 minutes for antigen-challenge. One hour prior to the antigen-challenge, pyrilamine maleate (antihistamic agent; dissolved in saline solution, 10 mg/2 ml/kg) was intraperitoneally administered to each animal. A test compound was suspended in a 0.5% methyl cellulose (MC), and administered intraperitoneally twice to each animal at 2 hours prior to, and 6 hours after the antigen-challenge at a dose of 100 mg/5 ml/kg. To the control group, a 0.5% MC was administered in the same manner instead of a test compound.
The measurement and analysis of the respiratory function were carried out by a modified method of the method of Hutson et al., (cf., Penny A. Hutson et al., Am Rev Respir Dis 1988 137, 548-557). Before the antigen-challenge (before the administration of the drug) and 5 minutes, and 3, 17 and 20 hours after the antigen-challenge, the respiratory function of each animal was measured, and the wave pattern was recorded using Maclab Chart v 3.4 (AD instruments), and the analysis of the respiratory function was carried out later by using thereof. The specific airway conductance (sGaw) was calculated, and the degree of the improvement of the respiratory function was evaluated by using it as an index.

[3] = BALF recovered at 24 hours after the antigen challenge, guinea pig
[4] = versus control group, BALF 24 hours after antigen challenge, 100 mg/5 ml/kg i.p. twice

T1 sequence (A0A8I6A822 27-587): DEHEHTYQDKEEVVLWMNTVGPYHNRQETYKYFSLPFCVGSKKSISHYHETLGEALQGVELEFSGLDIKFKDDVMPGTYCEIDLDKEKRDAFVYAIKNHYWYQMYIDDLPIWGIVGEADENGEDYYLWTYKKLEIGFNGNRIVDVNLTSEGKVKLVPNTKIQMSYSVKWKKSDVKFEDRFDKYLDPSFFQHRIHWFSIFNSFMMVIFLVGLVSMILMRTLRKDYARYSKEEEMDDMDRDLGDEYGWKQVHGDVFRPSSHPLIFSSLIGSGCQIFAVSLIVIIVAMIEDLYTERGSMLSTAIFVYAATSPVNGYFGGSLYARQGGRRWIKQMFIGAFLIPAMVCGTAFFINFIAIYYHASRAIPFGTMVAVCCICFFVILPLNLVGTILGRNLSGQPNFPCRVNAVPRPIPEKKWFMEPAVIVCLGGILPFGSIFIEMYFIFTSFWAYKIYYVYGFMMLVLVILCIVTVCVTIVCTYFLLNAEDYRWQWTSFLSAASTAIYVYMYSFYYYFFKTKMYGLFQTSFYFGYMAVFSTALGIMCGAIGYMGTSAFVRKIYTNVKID

Row | melting point [°C] | inhibition at 30 µM ([1]; Table 37, compound concentration 30 μM, [125I]-iodo-cyanopindolol, Experiment 1) [%] | inhibition at 30 µM ([1]; Table 44, concentration tested 30 μM, Experiment 4) [%] | SMILES | Number of eosinophils (×10^5) [2, 3] | Number of lymphocytes (×10^5) [2, 3] | Total number of cells (×10^5) [2, 3] | reduction of number of eosinophils in BALF [2, 4] [%] | reduction of number of lymphocytes in BALF [2, 4] [%] | reduction of total number of cells in BALF [2, 4] [%] | inhibitory rate of LAR (from rate of change of sGaw) (Hartley male guinea pigs; 20-hr value, versus control group, 100 mg/5 ml/kg i.p. twice) | Rate of change of sGaw, 5 minutes (Hartley male guinea pigs; 5 minutes after antigen challenge (IAR), 100 mg/5 ml/kg i.p. 2 h prior to and 6 h after challenge) [%] | Rate of change of sGaw, 20 hours (Hartley male guinea pigs; 20 hours after antigen challenge (LAR), 100 mg/5 ml/kg i.p. 2 h prior to and 6 h after challenge) [%] | inhibition of IAR induced immediately after the antigen challenge (Hartley male guinea pigs; result in words, 100 mg/5 ml/kg i.p. twice)
1 | 241 to 242 | – | – | Cl.NCCCn1c(-c2ccc(Br)cc2)csc1=Nc1ccccc1 | – | – | – | – | – | – | – | – | – | –
2 | – | 61.3 | – | CN(C)CCCn1c(-c2ccc(Br)cc2)csc1=Nc1ccccc1 [Example 1, N-{4-(4-bromophenyl)-3-[3-(dimethylamino)propyl]thiazol-2(3H)-ylidene}aniline] | 13.8 ± 5.1 ×10^5 | 2.0 ± 0.6 ×10^5 | 62.1 ± 8.6 ×10^5 | 79 | 70 | 82 | about 60% | −33.8 ± 6.8 | −14.2±15.0 | tendency of inhibiting the IAR
3 | 131 to 132 | – | 97 | COc1ccc(C(=O)/N=c2\scc(-c3ccc(OC(F)(F)F)cc3)n2CCCNC(C)=O)c(OC)c1 [Example 446, N-[3-[3-(Acetoamino)propyl]-4-[4-(trifluoromethoxy)phenyl]-1,3-thiazol-2(3H)-ylidene]-2,4-dimethoxybenzamide] | – | – | – | – | – | – | – | – | – | –
